Measured values: the supplement of paper PMC10307832

What was measured:
Assay in all cases: relative viability (nuclei count vs DMSO), 5 days (fraction); higher = more cells survive
[1] = compound: O=C(CCCCCCNC(=O)c1cnc(N(c2ccccc2)c2ccccc2)nc1)NO [Ricolinostat] + O=C(CCCCCCC(=O)Nc1ccccc1)NO [Vorinostat] (partner 1 µM)
How it was run: (§1)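 Lung cancer cell lines in 1536-well plates got either a single drug or a fixed anchor-drug dose together with five library-drug doses (not always all listed) in √10 steps, by pin tool, on the day after seeding. Nuclei were counted after 5 days, and relative viability is the treated-to-vehicle ratio of nuclei counts. Values are medians of duplicate plates.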

TGX 221 + Vorinostat = compound: CC1=CN2C(=O)C=C(N=C2C(=C1)C(C)NC3=CC=CC=C3)N4CCOCC4 [TGX 221] + O=C(CCCCCCC(=O)Nc1ccccc1)NO [Vorinostat] (partner 1 µM)
How it was run: as §1

[2] = compound: C1=CC=C(C(=C1)C2=CC=C(C=C2)C3=CSC4=C3C(=C(C(=O)N4)C#N)O)O + CCNC(=O)c1noc(-c2cc(C(C)C)c(O)cc2O)c1-c1ccc(CN2CCOCC2)cc1 [Luminespib] (partner 0.01 µM)
How it was run: as §1

[3] = compound: O=C(CCCCCCNC(=O)c1cnc(N(c2ccccc2)c2ccccc2)nc1)NO [Ricolinostat] + CS(=O)(=O)N1CCN(Cc2cc3nc(-c4cccc5[nH]ncc45)nc(N4CCOCC4)c3s2)CC1 [Pictilisib] (partner 1 µM)
How it was run: as §1

| Cell Line | relative viability ([1]; first compound 0.08 µM) | relative viability ([1]; first compound 0.253 µM) | relative viability ([1]; first compound 0.8 µM) | relative viability ([1]; first compound 2.53 µM) | relative viability (TGX 221 + Vorinostat; first compound 0.08 µM) | relative viability (TGX 221 + Vorinostat; first compound 0.253 µM) | relative viability (TGX 221 + Vorinostat; first compound 0.8 µM) | relative viability (TGX 221 + Vorinostat; first compound 2.53 µM) | relative viability (TGX 221 + Vorinostat; first compound 8 µM) | relative viability ([2]; first compound 0.08 µM) | relative viability ([2]; first compound 0.253 µM) | relative viability ([2]; first compound 0.8 µM) | relative viability ([2]; first compound 2.53 µM) | relative viability ([2]; first compound 8 µM) | relative viability ([3]; first compound 0.08 µM) | relative viability ([3]; first compound 0.253 µM) | relative viability ([3]; first compound 0.8 µM) | relative viability ([3]; first compound 2.53 µM) |
| --- | --- | --- | --- | --- | --- | --- | --- | --- | --- | --- | --- | --- | --- | --- | --- | --- | --- | --- |
| LCLC-97TM1 | 0.487 | 0.556 | 0.628 | 0.333 | 0.819 | 0.459 | 0.856 | 0.615 | 0.847 | 0.971 | 1.07 | 0.78 | 0.729 | 0.654 | 0.205 | 0.181 | 0.168 | 0.141 |
| NCI-H1734 | 0.725 | 0.891 | 0.702 | 0.67 | 0.675 | 0.67 | 0.787 | 0.702 | 0.764 | 0.16 | 0.245 | 0.196 | 0.214 | 0.208 | 0.371 | 0.467 | 0.495 | 0.402 |
| NCI-H661 | 0.68 | 0.716 | 0.722 | 0.558 | 0.794 | 0.755 | 0.78 | 0.925 | 0.785 | 0.808 | 0.985 | 0.964 | 0.9 | 0.898 | – | 0.412 | 0.422 | 0.727 |
| SK-LU-1 | 0.669 | 0.613 | 0.731 | 0.607 | 0.644 | 0.682 | 0.72 | 0.776 | 0.712 | 0.195 | 0.217 | 0.217 | 0.175 | 0.218 | 0.478 | 0.469 | 0.423 | 0.485 |
| LC-2-ad | 0.68 | 0.67 | 0.64 | 0.458 | 0.676 | 0.682 | 0.761 | 0.71 | 0.67 | 1.08 | 1.4 | 1.01 | 1.23 | 0.983 | 0.4 | 0.546 | 0.433 | 0.236 |
| NCI-H1355 | 0.64 | 0.627 | 0.619 | 0.533 | 0.614 | 0.577 | 0.591 | 0.629 | 0.558 | 0.542 | 0.681 | 0.727 | 0.61 | 0.533 | – | 0.418 | 0.419 | 0.316 |
| NCI-H1793 | 0.519 | 0.72 | 0.566 | 0.726 | 0.612 | 0.521 | 0.589 | 0.592 | 0.588 | 0.19 | 0.21 | 0.42 | 0.225 | 0.166 | – | 0.31 | 0.311 | 0.298 |
| H3255 | 0.735 | 1.09 | 0.672 | 0.591 | 0.779 | 0.823 | 0.816 | 0.782 | 0.845 | 0.968 | 1.02 | 0.713 | 0.852 | 0.895 | 0.387 | 0.418 | 0.484 | 0.484 |
| NCI-H2342 | 0.693 | 0.694 | 0.757 | 0.745 | 0.697 | 0.711 | 0.836 | 0.804 | 0.793 | 0.742 | 0.816 | 0.788 | 0.718 | 0.68 | – | – | – | – |
| NCI-H838 | 0.725 | 0.689 | 0.582 | 0.315 | 0.7 | 0.67 | 0.635 | 0.668 | 0.589 | 0.276 | 0.333 | 0.242 | 0.197 | 0.329 | 0.326 | 0.563 | 0.613 | 0.531 |
| NCI-H727 | 1.13 | 1.15 | 1.08 | 0.936 | 1.09 | 1.06 | 1.14 | 1.09 | 1.19 | 0.451 | 0.356 | 0.43 | 0.487 | 0.341 | 0.305 | 0.409 | 0.623 | 0.291 |
| UMC-11 | 0.389 | 0.377 | 0.265 | 0.187 | 0.417 | 0.391 | 0.402 | 0.373 | 0.359 | 0.764 | 1.04 | 1.03 | 1.06 | 0.839 | 0.645 | 0.859 | 0.723 | 0.24 |
| CAL-12T | 0.801 | 0.524 | 0.698 | 0.379 | 0.826 | 0.7 | 0.75 | 0.876 | 0.707 | 0.296 | 0.565 | 0.362 | 0.585 | 0.264 | 0.339 | 0.479 | 0.344 | 0.388 |
| NCI-H1755 | 0.665 | 0.715 | 0.673 | 0.484 | 0.677 | 0.681 | 0.775 | 0.718 | 0.667 | 0.401 | 0.302 | 0.336 | 0.349 | 0.447 | 0.278 | – | 0.402 | 0.312 |
| NCI-H1651 | 0.459 | 0.594 | 0.411 | 0.395 | 0.525 | 0.646 | 0.527 | 0.517 | 0.581 | 0.77 | 0.818 | 0.971 | 0.974 | 0.546 | 0.612 | 0.55 | 0.571 | 0.44 |
| NCI-H2170 | 0.774 | 0.744 | 0.737 | 0.501 | 0.754 | 0.758 | 0.767 | 0.759 | 0.831 | 0.594 | 1.11 | 0.992 | 0.752 | 0.609 | 0.27 | 0.315 | 0.355 | 0.287 |
| NCI-H1915 | 0.468 | 0.51 | 0.467 | 0.326 | 0.436 | 0.486 | 0.489 | 0.437 | 0.554 | 0.665 | 0.632 | – | 0.929 | 0.576 | 0.852 | 0.928 | 0.869 | 0.729 |
| EPLC-272H | 0.343 | 0.396 | 0.313 | 0.174 | 0.47 | 0.358 | 0.469 | 0.426 | 0.369 | 0.279 | 0.282 | 0.247 | 0.223 | 0.282 | – | 0.343 | 0.285 | 0.355 |
